Read-outs that look alike come from different tables or passages of the source.
Legend:
[1] = test system: cellular AMPK; assay: p-ACC(Ser79) ELISA in K562 cell lysates (glucose-free media, 2-DG); type: cell-based; conditions: K562, dose response, FIG. 2B
Protocol: FIGS. 2A and 2B are a series of graphs showing the effects of compounds of the present disclosure on cellular levels of p-ACC(Ser79) in K562 cells. FIG. 2A Quantitative ELISA determination of p-ACC(Ser79) levels in K562 lysates (1.0 mg mL^−1 total protein) following growth in glucose-free media for 24 h, 2-DG (12 mM) treatment for 1 h followed by treatment with inhibitor compounds at 5.0 μM for 2 h. Relative p-ACC levels are reported as a percentage of levels resultant from DMSO control treatment. […] Cells were collected, washed with PBS and lysed on ice in lysis buffer containing 1% Triton X (Cell Signaling). Lysates were someated (1×5 seconds) and centrifuged for 10 minutes at 10,000 rpm and 4° C., and the protein concentration in supernatants was determined by Lowry assay. Lysates were diluted with ELISA PathScan® sample diluent to a final volume of 100 μL and protein concentration of 1.0 mg/ml prior to use. The concentration of p-ACC (Ser79) was determined using an enzyme-linked immunosorbent assay according to recommended protocol (Cell Signaling, ELISA PathScan® phospho-Acetyl-CoA Carboxylase (Ser79)) and expressed as a relative percentage of the DMSO control.
The AMPK substrate ACC is used as a biomarker for the relative activity of AMPK, and the levels of p-ACC(Ser79) were measured by ELISA in the absence or presence of the compounds to determine the compounds' effects on cellular AMPK activity. The presence of total AMPK, p-AMPK, total ACC, and p-ACC was measured by Western blot in a panel of leukemic cell lines grown in glucoe competent or glucose-free media. […] The cell lysates from K562 cells grown in glucose-free media in the presence 2-DG and treated with compounds of the present disclosure were analyzed by the p-ACC(Ser79) ELISA to determine the effect of the compounds on cellular AMPK activity.

[2] = molecular target: AMPKα1 (Homo sapiens (Human), UniProt Q13131); assay: LANCE Eu TR-FRET recombinant kinase assay, AMPK(α1); type: biochemical
Protocol: (§1) Assays were performed at 25° C. in a reaction mixture consisting of 2.5 μL serially diluted inhibitor solution, 2.5 μL kinase, 2.5 μL ATP and 2.5 μL substrate. Reagents were incubated for 1 hr before the reaction was halted through the addition of EDTA (10 mM) after which Eu anti-phospho-CREB (Ser133) antibody (PerkinElmer) was added at a final concentration of 2 nM for 1 hr. […] (n=3)).

[3] = molecular target: AMPK(α2) (Homo sapiens (Human), UniProt P54646); assay: LANCE Eu TR-FRET recombinant kinase assay, AMPK(α2); type: biochemical; conditions: mean±S.D. (n=3); ATP 20 μM
Protocol: as §1

[4] = test system: K562 cells; assay: MTS cell viability assay in K562 cells; type: cell-based; conditions: Homo sapiens; K562, RPMI-1640; Table 2 head prints 24 h, method and FIG. 3A legend 72 hours
Protocol: (§2) The cells were incubated with inhibitors for 24 hours, before the plates were equilibrated to room temperature and 100 μL CellTiter-Glo reagent was added. […] Luminescent signal was plotted against the inhibitor log-dose and evaluated by a non-linear regression to determine half-maximal effect concentration (EC50) values, where possible.
An MTS assay was utilized to assess the effect of inhibitors on K562 viability.

[5] = test system: K562 cells; assay: CellTox green cellular toxicity assay in K562 cells (glucose-free media); type: cell-based; conditions: Homo sapiens
From the text: Fluorescence was plotted against inhibitor log-dose and evaluated by a non-linear regression to determine half-maximal effect concentration (EC50) values, where possible.
(§3) In order to increase the reliance of the cells on AMPK function, assays were needed that could be performed under glucose-free conditions. Therefore in order to elucidate the mechanism of action of the AMPK inhibitors, a CellTiter-Glo cell viability assay (FIG. 3B), which provide a readout proportional to ATP concentration, and thus, cellular viability, as well as a CellTox green cellular toxicity assay (FIG. 3C and FIG. 3D), which contain a dye that fluoresces upon DNA-binding in cells with impraied membrane integrity due to cytotoxicity were performed in K562 cells grown in glucose-free media. The results are summarized in Table 2 (values are the mean±S.D. (n=3)).

[6] = molecular target: KDR (Homo sapiens (Human), UniProt P35968); assay: LanthaScreen Eu TR-FRET KDR competitive binding assay
[7] = test system: K562 cells; assay: CellTiter-Glo cell viability assay in K562 cells (glucose-free media); type: cell-based; conditions: Homo sapiens, read-out: EC50 CellTiter Glo 24 h
Protocol: as §2, §3

[8] = mean±S.D. (n=3), ATP 8 μM, read-out: IC50 (nM) AMPK(α1)
[9] = read-out: EC50 CellTox Green 48 h, 48 h
[10] = read-out: IC50 (nM) KDR, mean±S.D. (n=3), competitive binding
[11] = read-out: EC50 CellTox Green 24 h, 24 h

Chain of AMPKα1 (Q13131 whole entry, looked up): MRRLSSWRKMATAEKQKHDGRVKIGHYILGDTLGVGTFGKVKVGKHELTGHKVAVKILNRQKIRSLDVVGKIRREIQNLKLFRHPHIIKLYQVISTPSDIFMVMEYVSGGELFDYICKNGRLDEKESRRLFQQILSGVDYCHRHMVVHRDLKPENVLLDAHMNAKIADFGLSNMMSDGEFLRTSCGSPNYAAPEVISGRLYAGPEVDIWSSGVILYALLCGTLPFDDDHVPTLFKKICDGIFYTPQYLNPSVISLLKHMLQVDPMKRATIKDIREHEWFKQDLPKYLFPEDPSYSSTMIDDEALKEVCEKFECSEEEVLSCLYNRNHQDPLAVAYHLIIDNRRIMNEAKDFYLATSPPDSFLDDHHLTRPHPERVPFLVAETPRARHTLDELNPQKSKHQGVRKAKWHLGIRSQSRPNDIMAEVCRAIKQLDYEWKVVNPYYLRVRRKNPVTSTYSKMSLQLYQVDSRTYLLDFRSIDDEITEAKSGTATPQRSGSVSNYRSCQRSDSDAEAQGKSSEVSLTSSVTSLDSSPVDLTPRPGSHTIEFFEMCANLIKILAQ
Chain of AMPKα1 (Q9Y478 whole entry partner, looked up): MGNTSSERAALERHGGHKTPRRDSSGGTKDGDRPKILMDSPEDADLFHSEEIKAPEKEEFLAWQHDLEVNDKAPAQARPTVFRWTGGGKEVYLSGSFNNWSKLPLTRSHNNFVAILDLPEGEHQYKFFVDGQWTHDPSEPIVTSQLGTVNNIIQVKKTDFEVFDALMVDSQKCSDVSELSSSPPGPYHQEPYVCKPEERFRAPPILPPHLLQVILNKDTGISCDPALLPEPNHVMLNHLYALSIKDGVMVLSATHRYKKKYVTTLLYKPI
Chain of AMPKα1 (P54619 whole entry partner, looked up): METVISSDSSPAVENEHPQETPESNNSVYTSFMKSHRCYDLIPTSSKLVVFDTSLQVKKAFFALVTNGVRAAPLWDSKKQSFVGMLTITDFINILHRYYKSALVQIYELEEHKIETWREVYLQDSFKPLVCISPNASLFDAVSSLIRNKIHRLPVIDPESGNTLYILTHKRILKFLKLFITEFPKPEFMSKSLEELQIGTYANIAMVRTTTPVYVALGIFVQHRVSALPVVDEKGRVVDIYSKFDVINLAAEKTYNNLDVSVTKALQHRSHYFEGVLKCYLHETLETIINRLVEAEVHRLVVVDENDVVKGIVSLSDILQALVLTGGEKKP
Chain of KDR (P35968 20-1356): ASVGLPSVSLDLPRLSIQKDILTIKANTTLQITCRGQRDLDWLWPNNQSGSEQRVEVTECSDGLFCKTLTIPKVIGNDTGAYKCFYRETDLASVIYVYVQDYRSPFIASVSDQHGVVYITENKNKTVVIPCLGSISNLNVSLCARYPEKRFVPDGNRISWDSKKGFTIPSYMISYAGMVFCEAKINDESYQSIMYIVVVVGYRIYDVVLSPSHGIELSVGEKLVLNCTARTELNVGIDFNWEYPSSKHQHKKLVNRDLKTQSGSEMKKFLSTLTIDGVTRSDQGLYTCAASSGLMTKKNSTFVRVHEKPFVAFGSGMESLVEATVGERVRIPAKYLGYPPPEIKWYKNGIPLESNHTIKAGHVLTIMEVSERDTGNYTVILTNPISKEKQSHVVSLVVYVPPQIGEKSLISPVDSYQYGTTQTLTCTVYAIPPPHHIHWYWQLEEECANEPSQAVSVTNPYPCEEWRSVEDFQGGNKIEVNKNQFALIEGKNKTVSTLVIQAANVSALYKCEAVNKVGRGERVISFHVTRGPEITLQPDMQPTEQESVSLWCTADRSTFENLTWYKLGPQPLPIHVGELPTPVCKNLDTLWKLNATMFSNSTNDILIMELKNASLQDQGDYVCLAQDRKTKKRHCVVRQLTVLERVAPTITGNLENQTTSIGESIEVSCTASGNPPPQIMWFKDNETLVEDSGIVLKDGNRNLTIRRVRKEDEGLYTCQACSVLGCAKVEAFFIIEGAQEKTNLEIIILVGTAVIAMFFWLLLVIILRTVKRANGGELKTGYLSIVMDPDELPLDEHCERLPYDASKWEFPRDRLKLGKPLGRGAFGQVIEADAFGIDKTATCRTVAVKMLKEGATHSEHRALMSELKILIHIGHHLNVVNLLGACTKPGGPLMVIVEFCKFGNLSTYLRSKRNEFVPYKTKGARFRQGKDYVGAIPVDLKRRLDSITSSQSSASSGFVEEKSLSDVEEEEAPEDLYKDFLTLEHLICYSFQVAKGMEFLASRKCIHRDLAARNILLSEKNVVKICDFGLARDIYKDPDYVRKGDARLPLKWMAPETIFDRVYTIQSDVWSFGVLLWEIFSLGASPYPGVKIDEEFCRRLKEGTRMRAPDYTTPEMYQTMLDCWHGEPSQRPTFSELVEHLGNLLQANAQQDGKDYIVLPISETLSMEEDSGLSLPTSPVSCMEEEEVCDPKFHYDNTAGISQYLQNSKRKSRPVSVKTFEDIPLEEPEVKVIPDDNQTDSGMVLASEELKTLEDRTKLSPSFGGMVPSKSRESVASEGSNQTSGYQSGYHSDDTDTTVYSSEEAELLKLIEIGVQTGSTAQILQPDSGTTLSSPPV
Chain of AMPK(α2) (P54646 whole entry, looked up): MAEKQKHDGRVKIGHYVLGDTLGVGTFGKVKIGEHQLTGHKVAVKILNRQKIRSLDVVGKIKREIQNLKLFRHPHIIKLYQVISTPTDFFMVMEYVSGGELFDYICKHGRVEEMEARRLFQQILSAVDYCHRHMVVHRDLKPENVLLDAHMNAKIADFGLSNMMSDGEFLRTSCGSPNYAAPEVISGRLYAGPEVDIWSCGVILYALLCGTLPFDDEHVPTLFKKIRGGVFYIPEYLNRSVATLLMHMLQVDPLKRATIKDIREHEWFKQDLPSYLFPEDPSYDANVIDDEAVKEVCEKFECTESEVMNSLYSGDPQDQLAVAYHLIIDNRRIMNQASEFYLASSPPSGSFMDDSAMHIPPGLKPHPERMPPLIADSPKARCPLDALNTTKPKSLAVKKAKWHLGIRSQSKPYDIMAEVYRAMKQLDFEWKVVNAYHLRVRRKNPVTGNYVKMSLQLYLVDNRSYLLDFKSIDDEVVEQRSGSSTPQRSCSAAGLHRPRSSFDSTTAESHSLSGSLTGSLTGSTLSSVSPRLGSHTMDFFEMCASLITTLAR
Chain of AMPK(α2) (Q9Y478 whole entry partner, looked up): as the sequence (Q9Y478 whole entry partner, looked up) above
Chain of AMPK(α2) (P54619 whole entry partner, looked up): as the sequence (P54619 whole entry partner, looked up) above

IC50 [2, 8]	IC50 [3]	IC50 [6, 10]	SMILES	EC50 [5, 9]	further results
393 ± 27 nM	141 ± 33 nM		Cc1[nH]c(/C=C2\C(=O)Nc3ccc(F)cc32)c(C)c1C(=O)NCCN [Compound No. 4, (Z)—N-(2-Aminoethyl)-5-((5-fluoro-2-oxoindolin-3-ylidene)methyl)-2,4-dimethyl-1H-pyrrole-3-carboxamide]		
180 ± 24 nM	61.4 ± 12.7 nM	505 ± 18 nM	CCNCCNC(=O)c1c(C)[nH]c(/C=C2\C(=O)Nc3ccc(F)cc32)c1C [Compound No. 6]	11.9 ± 1.58 µM	EC50 [4]: 13.6 ± 1.69 µM; EC50 [7]: 15.5 ± 0.48 µM; EC50 [5, 11]: 12.89 ± 0.11 µM
221 ± 31 nM	74.8 ± 3.1 nM		Cc1[nH]c(/C=C2\C(=O)Nc3ccc(F)cc32)c(C)c1C(=O)NCCCN(C)C [Compound No. 7, (Z)—N-(3-(Dimethylamino)propyl)-5-((5-fluoro-2-oxoindolin-3-ylidene)methyl)-2,4-dimethyl-1H-pyrrole-3-carboxamide]		
	154 ± 53 nM		CCN(CC)CCNC(=O)c1c(C)[nH]c(/C=C2\C(=O)Nc3ccc(CCN(C)C)cc32)c1C [Compound No. 12, (Z)—N-(2-(Diethylamino)ethyl)-5-((5-(2-(dimethylamino)ethyl)-2-oxoindolin-3-ylidene)methyl)-2,4-dimethyl-1H-pyrrole-3-carboxamide]		IC50 ([2]; text value in μM, read-out: AMPKα1 IC50): 2100 ± 440 nM
184 ± 11 nM	108 ± 17 nM	2160 ± 101 nM	CCN(CC)CCNC(=O)c1c(C)[nH]c(/C=C2\C(=O)Nc3ccc(CCNC(C)=O)cc32)c1C [Compound No. 14, (Z)-5-((5-(2-Acetamidoethyl)-2-oxoindolin-3-ylidene)methyl)-N-(2-(diethylamino)ethyl)-2,4-dimethyl-1H-pyrrole-3-carboxamide]		
208 ± 33 nM	82.5 ± 27.9 nM		CCN(CC)CCNC(=O)c1c(C)[nH]c(/C=C2\C(=O)Nc3cc(Br)ccc32)c1C [Compound No. 22, (Z)-5-((6-Bromo-2-oxoindolin-3-ylidene)methyl)-N-(2-(diethylamino)ethyl)-2,4-dimethyl-1H-pyrrole-3-carboxamide]		

Second part, the compound before the results:

SMILES	IC50 [2, 8]	IC50 [3]	IC50 [6, 10]	EC50 [5, 9]	further results
CCN(CC)CCNC(=O)c1c(C)[nH]c(/C=C2\C(=O)Nc3ccc(CCO)cc32)c1C [Compound 65]					p-ACC level reduction across concentration range compared with sunitinib [1]: improvements in cellular AMPK inhibition over sunitinib at all concentrations apart from 50 μM
CCN(CC)CCNC(=O)c1c(C)[nH]c(/C=C2\C(=O)Nc3ccc(CCC(N)=O)cc32)c1C [Compound 67]					p-ACC level reduction across concentration range compared with sunitinib [1]: significant improvements in p-ACC level reduction with respect to sunitinib at both 3.125 mM and 12.5 mM
Cc1[nH]c(/C=C2\C(=O)Nc3ccc(F)cc32)c(C)c1C(=O)NCCN(C)C [Compound No. 5, (Z)—N-(2-(Dimethylamino)ethyl)-5-((5-fluoro-2-oxoindolin-3-ylidene)methyl)-2,4-dimethyl-1H-pyrrole-3-carboxamide]	136 ± 16 nM	50.4 ± 17.9 nM	493 ± 24 nM	13.03 ± 0.04 µM	EC50 [4]: 12.6 ± 0.93 µM
CCN(CC)CCCNC(=O)c1c(C)[nH]c(/C=C2\C(=O)Nc3ccc(F)cc32)c1C [Compound No. 8, (Z)—N-(3-(Diethylamino)propyl)-5-((5-fluoro-2-oxoindolin-3-ylidene)methyl)-2,4-dimethyl-1H-pyrrole-3-carboxamide]	152 ± 22 nM	38.6 ± 10.6 nM	480 ± 52 nM	13.27 ± 0.08 µM	EC50 [4]: 13.5 ± 0.59 µM; EC50 [7]: 18 ± 0.32 µM
CCN(CC)CCNC(=O)c1c(C)[nH]c(/C=C2\C(=O)Nc3ccc(CCOC)cc32)c1C [Compound No. 9, (Z)—N-(2-(Diethylamino)ethyl)-5-((5-(2-methoxyethyl)-2-oxoindolin-3-ylidene)methyl)-2,4-dimethyl-1H-pyrrole-3-carboxamide]	296 ± 16 nM	96.6 ± 4.3 nM			
CCN(CC)CCNC(=O)c1c(C)[nH]c(/C=C2\C(=O)Nc3ccc(CCOC(C)=O)cc32)c1C [Compound No. 11, (Z)-2-(3-((4-((2-(Diethylamino)ethyl)carbamoyl)-3,5-dimethyl-1H-pyrrol-2-yl)methylene)-2-oxoindolin-5-yl)ethyl acetate]	418 ± 45 nM	111 ± 21 nM			
CCN(CC)CCNC(=O)c1c(C)[nH]c(/C=C2\C(=O)Nc3ccc(CCN=[N+]=[N-])cc32)c1C [Compound No. 13, (Z)-5-((5-(2-Azidoethyl)-2-oxoindolin-3-ylidene)methyl)-N-(2-(diethylamino)ethyl)-2,4-dimethyl-1H-pyrrole-3-carboxamide]	139 ± 13 nM	101 ± 20 nM		4.81 ± 0.08 µM	EC50 [4]: 3.83 ± 0.05 µM; EC50 [7]: 4.86 ± 0.16 µM; IC50 ([6]; read-out: KDR IC50, values in μM): 2260 ± 110 nM
CCN(CC)CCNC(=O)c1c(C)[nH]c(/C=C2\C(=O)Nc3ccc(C#N)cc32)c1C [Compound No. 17, (Z)-5-((5-Cyano-2-oxoindolin-3-ylidene)methyl)-N-(2-(diethylamino)ethyl)-2,4-dimethyl-1H-pyrrole-3-carboxamide]	93 ± 8 nM	16.2 ± 7.4 nM	391 ± 22 nM	13.6 ± 0.35 µM	EC50 [7]: 19.9 ± 1.21 µM
CCN(CC)CCNC(=O)c1c(C)[nH]c(/C=C2\C(=O)Nc3ccc(CNC(N)=O)cc32)c1C [Compound No. 18, (Z)—N-(2-(Diethylamino)ethyl)-2,4-dimethyl-5-((2-oxo-5-(ureidomethyl)indolin-3-ylidene)methyl)-1H-pyrrole-3-carboxamide]	205 ± 52 nM	83.6 ± 7 nM			
CCN(CC)CCNC(=O)c1c(C)[nH]c(/C=C2\C(=O)Nc3ccccc32)c1C [Compound No. 19, (Z)—N-(2-(Diethylamino)ethyl)-2,4-dimethyl-5-((2-oxoindolin-3-ylidene)methyl)-1H-pyrrole-3-carboxamide]	246 ± 11 nM	88.5 ± 7.1 nM			
CCN(CC)CCNC(=O)c1c(C)[nH]c(/C=C2\C(=O)Nc3cc(F)ccc32)c1C [Compound No. 20, (Z)—N-(2-(Diethylamino)ethyl)-5-((6-fluoro-2-oxoindolin-3-ylidene)methyl)-2,4-dimethyl-1H-pyrrole-3-carboxamide]	240 ± 37 nM	49.4 ± 22.1 nM	189 ± 7 nM	7.15 ± 0.35 µM	EC50 [4]: 2.85 ± 0.22 µM
CCN(CC)CCNC(=O)c1c(C)[nH]c(/C=C2\C(=O)Nc3cc(Cl)ccc32)c1C [Compound No. 21, (Z)-5-((6-Chloro-2-oxoindolin-3-ylidene)methyl)-N-(2-(diethylamino)ethyl)-2,4-dimethyl-1H-pyrrole-3-carboxamide]	217 ± 37 nM	65.1 ± 12.3 nM	206 ± 7 nM	4.18 ± 0.41 µM	EC50 [7]: 3.83 ± 0.46 µM; EC50 [5, 11]: 5.24 ± 0.22 µM
CCc1ccc2c(c1)NC(=O)/C2=C\c1[nH]c(C)c(C(=O)NCCN(CC)CC)c1C [Compound No. 24, (Z)—N-(2-(Diethylamino)ethyl)-5-((6-ethyl-2-oxoindolin-3-ylidene)methyl)-2,4-dimethyl-1H-pyrrole-3-carboxamide]	348 ± 71 nM				
CCN(CC)CCNC(=O)c1c(C)[nH]c(/C=C2\C(=O)Nc3cc(C(C)C)ccc32)c1C [Compound No. 25, N-(2-(Diethylamino)ethyl)-5-((6-isopropyl-2-oxoindolin-3-ylidene)methyl)-2,4-dimethyl-1H-pyrrole-3-carboxamide]					inhibition at 20 µM ([2]; read-out: AMPK(α1) % inhibition at 20 μM): 70%

From patent publication US12435059B2, “AMP-activated protein kinase inhibitors and methods of making and using the same” (The Regents of the University of Colorado, priority 2019, dated 2025)
